# pIC50: −log10 of the molar value.
# Columns and labels:
# Test in all cases: in vitro HDAC inhibition assay (fluorescence)
# Format in all cases: biochemical
# [1] = molecular target: HDAC1 (Homo sapiens, UniProt Q13547)
# Experimental: (§1) Briefly, all of the compounds are dissolved in DMSO. A series of dilutions of the compounds were prepared with 10% DMSO in HDAC assay buffer and 5 μl of the dilution was added to a 50 μl reaction so that the final concentration of DMSO is 1% in all of reactions. The compounds were pre-incubated in duplicate at RT for 1 hour in a mixture containing HDAC assay buffer, 5 μg BSA, HDAC enzyme (see Table 7) and a the particular HDACi. After 1 hour, the enzymatic reactions were initiated by the addition of HDAC substrate (BPS Bioscience) to a final concentration of 10 μM or 2 μM. The enzymatic reaction proceeded for 30 minutes at 37° C.
# (§2) HDAC activity assays were performed in duplicates at each concentration. The fluorescent intensity data were analyzed using the computer software, Graphpad Prism. In the absence of the compound, the fluorescent intensity (Ft) in each data set was defined as 100% activity. In the absence of HDAC, the fluorescent intensity (Fb) in each data set was defined as 0% activity. The percent activity in the presence of each compound was calculated according to the following equation: % activity=(F−Fb)/(Ft−Fb), where F=the fluorescent intensity in the presence of the compound.
# (§3) The values of % activity versus a series of compound concentrations were then plotted using non-linear regression analysis of Sigmoidal dose-response curve generated with the equation Y=B+(T−B)/1+10^((Log EC50-X)×Hill Slope), where Y=percent activity, B=minimum percent activity, T=maximum percent activity, X=logarithm of compound and Hill Slope=slope factor or Hill coefficient. The IC50 value was determined by the concentration causing a half-maximal percent activity.
# [2] = molecular target: T1, HDAC11 (Homo sapiens, UniProt Q96DB2)
# T1 sequence (Q96DB2 1-347): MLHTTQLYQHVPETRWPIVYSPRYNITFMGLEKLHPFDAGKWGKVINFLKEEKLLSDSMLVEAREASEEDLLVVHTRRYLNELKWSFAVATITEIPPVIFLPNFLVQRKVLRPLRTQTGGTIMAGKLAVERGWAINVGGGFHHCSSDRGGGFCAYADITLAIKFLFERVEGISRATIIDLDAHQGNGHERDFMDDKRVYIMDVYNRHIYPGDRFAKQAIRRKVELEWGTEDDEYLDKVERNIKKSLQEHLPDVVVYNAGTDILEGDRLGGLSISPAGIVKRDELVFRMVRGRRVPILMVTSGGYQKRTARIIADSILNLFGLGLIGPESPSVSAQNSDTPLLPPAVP
# Experimental: as §1, §2, §3
# [3] = molecular target: HDAC9 (Homo sapiens, UniProt Q9UKV0); settings: for inhibition at 100 µM: read-out: Percentage Inhibition HDAC9
# Sequence of HDAC9 (Q9UKV0 whole entry): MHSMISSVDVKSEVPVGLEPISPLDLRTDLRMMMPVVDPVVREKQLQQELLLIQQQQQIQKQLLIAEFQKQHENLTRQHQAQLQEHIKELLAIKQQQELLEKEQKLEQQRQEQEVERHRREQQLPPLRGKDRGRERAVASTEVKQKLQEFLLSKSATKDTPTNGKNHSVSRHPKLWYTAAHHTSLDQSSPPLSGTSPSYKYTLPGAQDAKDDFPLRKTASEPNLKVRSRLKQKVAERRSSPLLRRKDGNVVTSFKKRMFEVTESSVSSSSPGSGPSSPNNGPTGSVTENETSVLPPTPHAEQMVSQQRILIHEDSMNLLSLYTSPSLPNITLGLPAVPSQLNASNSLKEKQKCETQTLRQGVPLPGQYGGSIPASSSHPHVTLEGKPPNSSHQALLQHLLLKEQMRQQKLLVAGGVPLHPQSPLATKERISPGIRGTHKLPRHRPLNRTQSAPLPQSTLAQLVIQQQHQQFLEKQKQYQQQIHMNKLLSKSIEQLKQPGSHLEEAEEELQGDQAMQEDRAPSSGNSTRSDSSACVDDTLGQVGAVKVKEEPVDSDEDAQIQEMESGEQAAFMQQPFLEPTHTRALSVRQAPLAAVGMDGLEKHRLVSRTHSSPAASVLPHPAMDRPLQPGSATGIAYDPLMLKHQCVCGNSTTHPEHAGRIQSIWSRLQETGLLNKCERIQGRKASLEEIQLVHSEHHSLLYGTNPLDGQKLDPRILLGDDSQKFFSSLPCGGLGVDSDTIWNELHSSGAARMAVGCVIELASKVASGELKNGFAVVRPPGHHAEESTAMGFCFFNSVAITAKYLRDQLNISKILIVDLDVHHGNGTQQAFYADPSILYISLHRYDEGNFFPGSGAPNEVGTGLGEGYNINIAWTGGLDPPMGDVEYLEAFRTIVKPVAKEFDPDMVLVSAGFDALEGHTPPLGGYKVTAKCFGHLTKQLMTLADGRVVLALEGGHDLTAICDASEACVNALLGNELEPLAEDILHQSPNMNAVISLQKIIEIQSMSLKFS
# Experimental: as §1, §2, §3
# [4] = molecular target: T2, HDAC7 (Homo sapiens, UniProt Q8WUI4); settings: for inhibition at 100 µM: read-out: Percentage Inhibition HDAC7
# T2 sequence (Q8WUI4 1-952): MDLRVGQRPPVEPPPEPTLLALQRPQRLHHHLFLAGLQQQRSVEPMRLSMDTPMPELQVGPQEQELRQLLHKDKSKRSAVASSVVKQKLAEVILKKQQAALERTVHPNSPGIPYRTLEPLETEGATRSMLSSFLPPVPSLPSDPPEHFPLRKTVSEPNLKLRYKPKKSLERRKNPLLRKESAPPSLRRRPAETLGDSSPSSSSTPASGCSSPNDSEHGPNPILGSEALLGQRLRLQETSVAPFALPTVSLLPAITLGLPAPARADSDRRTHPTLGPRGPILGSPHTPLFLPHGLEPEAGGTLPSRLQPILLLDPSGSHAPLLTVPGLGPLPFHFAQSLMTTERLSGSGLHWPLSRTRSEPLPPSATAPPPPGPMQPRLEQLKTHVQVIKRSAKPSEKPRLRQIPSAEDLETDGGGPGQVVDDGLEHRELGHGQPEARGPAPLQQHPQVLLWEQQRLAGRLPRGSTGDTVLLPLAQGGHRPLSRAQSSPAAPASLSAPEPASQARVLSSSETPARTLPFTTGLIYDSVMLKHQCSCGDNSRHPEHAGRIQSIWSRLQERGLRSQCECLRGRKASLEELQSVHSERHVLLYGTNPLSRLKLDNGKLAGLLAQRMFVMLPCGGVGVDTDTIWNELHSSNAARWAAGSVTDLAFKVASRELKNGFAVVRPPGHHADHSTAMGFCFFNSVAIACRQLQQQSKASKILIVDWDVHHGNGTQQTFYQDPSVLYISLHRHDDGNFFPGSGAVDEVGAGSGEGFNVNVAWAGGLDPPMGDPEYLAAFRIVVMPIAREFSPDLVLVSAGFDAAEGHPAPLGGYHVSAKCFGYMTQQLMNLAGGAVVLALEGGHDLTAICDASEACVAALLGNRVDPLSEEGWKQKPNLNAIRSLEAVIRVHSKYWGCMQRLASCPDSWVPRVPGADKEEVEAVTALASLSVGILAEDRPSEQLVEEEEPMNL
# Experimental: as §1, §2, §3
# [5] = molecular target: HDAC5 (Homo sapiens, UniProt Q9UQL6)
# Sequence of HDAC5 (Q9UQL6 whole entry): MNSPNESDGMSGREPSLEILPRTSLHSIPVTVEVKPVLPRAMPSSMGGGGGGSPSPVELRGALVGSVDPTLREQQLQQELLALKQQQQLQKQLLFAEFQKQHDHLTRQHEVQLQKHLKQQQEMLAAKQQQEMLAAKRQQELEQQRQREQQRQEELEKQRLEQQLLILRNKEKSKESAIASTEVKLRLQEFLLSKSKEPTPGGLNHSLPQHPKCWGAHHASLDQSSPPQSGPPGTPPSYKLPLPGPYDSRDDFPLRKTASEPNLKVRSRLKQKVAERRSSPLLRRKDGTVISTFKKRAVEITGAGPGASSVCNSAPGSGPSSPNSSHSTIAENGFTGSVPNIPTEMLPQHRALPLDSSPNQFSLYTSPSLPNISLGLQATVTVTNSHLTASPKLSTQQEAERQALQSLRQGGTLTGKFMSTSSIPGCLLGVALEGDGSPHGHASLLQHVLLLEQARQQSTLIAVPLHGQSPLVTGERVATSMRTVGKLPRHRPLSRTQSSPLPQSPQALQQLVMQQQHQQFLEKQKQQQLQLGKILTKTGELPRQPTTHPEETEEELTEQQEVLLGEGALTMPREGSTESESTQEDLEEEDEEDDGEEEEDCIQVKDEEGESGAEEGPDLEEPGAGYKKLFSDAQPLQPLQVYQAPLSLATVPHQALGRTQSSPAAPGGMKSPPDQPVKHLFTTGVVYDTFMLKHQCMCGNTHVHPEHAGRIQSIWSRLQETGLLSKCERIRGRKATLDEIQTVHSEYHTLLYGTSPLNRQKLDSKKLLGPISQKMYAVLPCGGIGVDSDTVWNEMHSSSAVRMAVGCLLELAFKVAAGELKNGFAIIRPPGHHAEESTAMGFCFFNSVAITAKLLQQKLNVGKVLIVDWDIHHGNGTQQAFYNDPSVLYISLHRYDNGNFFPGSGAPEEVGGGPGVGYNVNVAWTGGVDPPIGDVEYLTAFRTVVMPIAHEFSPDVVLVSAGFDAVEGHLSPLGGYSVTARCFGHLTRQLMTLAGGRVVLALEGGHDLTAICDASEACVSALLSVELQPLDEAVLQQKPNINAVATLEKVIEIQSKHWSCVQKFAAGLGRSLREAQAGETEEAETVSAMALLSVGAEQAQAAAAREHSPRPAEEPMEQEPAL
# Experimental: as §1, §2, §3
# [6] = molecular target: HDAC4 (Homo sapiens, UniProt P56524); settings: for inhibition at 100 µM: read-out: Percentage Inhibition HDAC4
# Sequence of HDAC4 (P56524 whole entry): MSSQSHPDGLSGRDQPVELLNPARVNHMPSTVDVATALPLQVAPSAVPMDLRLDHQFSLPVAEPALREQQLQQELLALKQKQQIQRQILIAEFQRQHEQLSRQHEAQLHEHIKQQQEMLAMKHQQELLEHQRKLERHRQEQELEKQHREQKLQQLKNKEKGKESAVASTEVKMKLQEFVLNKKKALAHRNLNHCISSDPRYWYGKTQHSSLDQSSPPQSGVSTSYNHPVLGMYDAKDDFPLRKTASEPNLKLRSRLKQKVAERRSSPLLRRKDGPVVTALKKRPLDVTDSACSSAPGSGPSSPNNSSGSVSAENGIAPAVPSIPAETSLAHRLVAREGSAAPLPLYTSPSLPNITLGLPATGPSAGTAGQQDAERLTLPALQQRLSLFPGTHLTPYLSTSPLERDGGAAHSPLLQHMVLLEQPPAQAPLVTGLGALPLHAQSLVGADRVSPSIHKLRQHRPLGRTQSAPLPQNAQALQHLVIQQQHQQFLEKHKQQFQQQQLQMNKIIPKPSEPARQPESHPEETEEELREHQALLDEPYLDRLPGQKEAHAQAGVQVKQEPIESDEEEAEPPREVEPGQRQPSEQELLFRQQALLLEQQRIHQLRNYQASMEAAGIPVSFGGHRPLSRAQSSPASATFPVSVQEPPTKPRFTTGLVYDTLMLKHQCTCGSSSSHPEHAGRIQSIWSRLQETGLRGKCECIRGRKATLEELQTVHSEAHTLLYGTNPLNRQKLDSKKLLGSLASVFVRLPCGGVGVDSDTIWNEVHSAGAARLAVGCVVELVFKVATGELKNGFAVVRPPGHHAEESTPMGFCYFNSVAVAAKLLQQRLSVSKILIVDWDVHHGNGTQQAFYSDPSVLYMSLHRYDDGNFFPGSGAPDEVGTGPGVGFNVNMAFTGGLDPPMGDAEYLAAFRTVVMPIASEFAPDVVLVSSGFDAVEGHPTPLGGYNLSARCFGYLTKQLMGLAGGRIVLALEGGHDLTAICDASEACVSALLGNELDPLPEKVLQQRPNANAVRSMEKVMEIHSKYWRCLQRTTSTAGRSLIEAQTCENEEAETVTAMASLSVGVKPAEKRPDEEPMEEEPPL
# Experimental: as §1, §2, §3
# Sequence of HDAC1 (Q13547 whole entry): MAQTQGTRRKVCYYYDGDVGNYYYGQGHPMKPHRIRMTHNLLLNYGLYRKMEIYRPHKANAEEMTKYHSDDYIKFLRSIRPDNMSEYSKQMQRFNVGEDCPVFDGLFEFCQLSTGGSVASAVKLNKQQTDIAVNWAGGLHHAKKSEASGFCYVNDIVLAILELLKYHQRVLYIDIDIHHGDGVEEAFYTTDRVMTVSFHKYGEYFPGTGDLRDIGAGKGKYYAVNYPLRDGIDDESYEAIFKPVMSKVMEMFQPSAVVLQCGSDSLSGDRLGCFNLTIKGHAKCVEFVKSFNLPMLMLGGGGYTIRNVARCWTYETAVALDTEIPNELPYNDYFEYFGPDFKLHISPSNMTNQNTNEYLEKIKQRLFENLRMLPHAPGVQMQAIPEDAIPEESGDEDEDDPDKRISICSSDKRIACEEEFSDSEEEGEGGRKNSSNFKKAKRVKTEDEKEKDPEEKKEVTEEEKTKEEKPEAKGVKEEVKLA
SMILES,pIC50 [1],pIC50 [2],inhibition at 100 µM ([2]; read-out: Percentage Inhibition HDAC11) [%],pIC50 [3],inhibition at 100 µM [3] [%],pIC50 [4],inhibition at 100 µM [4] [%],pIC50 [5],inhibition at 100 µM ([5]; read-out: Percentage Inhibition HDAC5) [%],pIC50 [6],inhibition at 100 µM [6] [%]
"C/C=C1\NC(=O)[C@H]2CSSCC/C=C/[C@H](CC(=O)N[C@H](C(C)C)C(=O)N2)OC(=O)[C@H](C(C)C)NC1=O [FK228, romidepsin]",5.92,< 4.00,< 17,< 4.00,< 17,< 4.00,< 17,< 4.00,17,< 4.00,< 17
"Nc1ccccc1NC(=O)c1ccc(CNC(=O)OCc2cccnc2)cc1 [MS-275, entinostat]",,< 4.00,,,,,,,,,
"O=C(CCCCCCC(=O)Nc1ccccc1)NO [SAHA, suberanilohydroxamic acid]",,,,,37,,27,,,,34

# Source: patent US10953011B2, “Methods of treating virally associated cancers with histone deacetylase inhibitors” (priority 2019, dated 2021)
